Measurements taken from publication PMC10987858 (Heliyon, 2024).

Target: Bovine Serum Albumin (BSA) (Bos taurus, UniProt P02769)
Assay: tryptophan fluorescence quenching titration
Assay type: binding
Settings: 298 K; phosphate buffer, pH not given; 10 μM BSA stock; double-log

Bovine Serum Albumin (BSA), sequence (P02769 25-607): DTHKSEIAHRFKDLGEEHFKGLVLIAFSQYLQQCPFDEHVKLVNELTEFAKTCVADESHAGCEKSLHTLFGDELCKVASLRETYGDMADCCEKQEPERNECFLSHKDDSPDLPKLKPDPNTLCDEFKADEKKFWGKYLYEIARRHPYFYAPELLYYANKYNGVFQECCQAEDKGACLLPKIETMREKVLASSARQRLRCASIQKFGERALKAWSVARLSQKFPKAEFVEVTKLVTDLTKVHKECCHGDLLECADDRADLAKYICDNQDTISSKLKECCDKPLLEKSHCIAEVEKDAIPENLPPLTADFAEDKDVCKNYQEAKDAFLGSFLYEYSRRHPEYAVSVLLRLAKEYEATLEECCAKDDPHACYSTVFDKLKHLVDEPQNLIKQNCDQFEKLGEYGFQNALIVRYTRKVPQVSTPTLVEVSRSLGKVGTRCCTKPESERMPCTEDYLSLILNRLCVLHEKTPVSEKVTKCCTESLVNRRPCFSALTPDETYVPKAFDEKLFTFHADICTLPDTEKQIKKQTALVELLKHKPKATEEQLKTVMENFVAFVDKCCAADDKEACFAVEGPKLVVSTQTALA

Row | SMILES | Kb
1 | CC=NNC(=O)Cc1ccccc1 [EPAH, N′-ethylidene-2-phenylacetohydrazide] | 2.47e+06 M⁻¹
2 | O=C(Cc1ccccc1)NN=Cc1ccco1 [FMPAH, N’-(furan-2-ylmethylene)-2-phenylacetohydrazide] | 44500 M⁻¹
3 | O=C(Cc1ccccc1)NN=Cc1ccccc1O [HBPAH, N'-(2-hydroxybenzylidene)-2-phenylacetohydrazide] | 683000 M⁻¹
4 | O=C(Cc1ccccc1)N/N=C/C=C/c1ccccc1 [PPAH, 2-Phenyl-N'-(3-phenylallylidene)acetohydrazide] | 1.75e+08 M⁻¹
